Measurements published in patent publication US9480679B2, “Methods for treating malaria, tuberculosis and MAC diseases” (priority 2009, dated 2016).
≈ marks a conversion by molar mass, not a printed value. Where two headings read alike, the source gives them in different places.

Experiments:
P. falciparum NF54 = test: In vitro P. falciparum 72 hour assay (48+24); format: cell-based; settings: Plasmodium falciparum, NF54
Procedure: EXAMPLE. In vitro and in vivo activity against different species of Plasmodium parasites. CEM-101 was tested against intra-erythrocytic forms of P. falciparum derived from asynchronous cultures of the strain […]. […] CEM-101 was followed for 120 h. CEM-101 has delayed activity when compared to other agents.
In vitro P. falciparum data for CEM-101 in the 72 h Assay (48+24)

P. berghei blood stages = test: Blood stage treatment of P. berghei-infected mice, 3 day PO or SC dosing; format: in vivo; settings: blood stage infections
P. berghei = test: Murine P. berghei model, oral 1x or 4x 100 mg/kg; format: in vivo; settings: for Parasitized RBC in one drop of blood (made by microscope): individual animals
Procedure: EXAMPLE. CEM-101 activity in infected mice.
EXAMPLE. CEM-101 was tested in the murine P. berghei model as described by Vennerstrom et al. Nature 430(7002):900-904 (2004), the disclosure of which is incorporated herein by reference.

With `CC[C@H]1OC(=O)[C@@](C)(F)C(=O)[C@H](C)[C@@H](O[C@@H]2O[C@H](C)C[C@H](N(C)C)[C@H]2O)[C@](C)(OC)C[C@@H](C)C(=O)[C@H](C)[C@H]2N(CCCCn3cc(-c4cccc(N)c4)nn3)C(=O)O[C@]12C` [CEM-101, solithromycin] the IC50 (P. falciparum NF54; 72 h assay (48+24), read-out: IC50 NF54 TEST 1) was 0.919 µg/mL (≈ 1.09 µM), the IC50 (P. falciparum NF54; 72 h assay (48+24), read-out: IC50 NF54 TEST 2) was 1.54 µg/mL (≈ 1.82 µM) and the IC50 (P. falciparum NF54; 72 h assay (48+24), read-out: IC50 NF54 TEST 3) was 1.49 µg/mL (≈ 1.76 µM). It also gave an IC50 (P. falciparum NF54; 72 h assay (48+24), read-out: IC50 NF54 TEST 4) of 1.26 µg/mL (≈ 1.49 µM), an IC50 (P. falciparum NF54; 72 hour assay (48+24), read-out: IC50 NF54 Test 1) of 0.919 µg/mL (≈ 1.09 µM) and an IC50 (P. falciparum NF54; 72 hour assay (48+24), read-out: IC50 NF54 Test 2) of 1.54 µg/mL (≈ 1.82 µM). For the same molecule, the IC50 (P. falciparum NF54; 72 hour assay (48+24), read-out: IC50 NF54 Test 3) was 1.49 µg/mL (≈ 1.76 µM), the IC50 (P. falciparum NF54; 72 hour assay (48+24), read-out: IC50 NF54 Test 4) was 1.26 µg/mL (≈ 1.49 µM) and the “minimum active dose for PO route” value (P. berghei blood stages; PO) was 80 mg/kg/d×3. The “minimum curative SC dose” value (P. berghei blood stages; SC) was 40 mg/kg/d×3 days, the “outcome in murine malarial infection model” value (P. berghei; mice) was “curative” and the “Activity (%)” value (P. berghei; mice, 1 × 100 mg/kg oral, DMSO) was 80.05%. For the same molecule, the “Survival” value (P. berghei; mice, 1 × 100 mg/kg oral, DMSO) was 15.7 days, the “Activity (%)” value (P. berghei; mice, 1 × 100 mg/kg oral, HPMC) was 81.45% and the “Survival” value (P. berghei; mice, 1 × 100 mg/kg oral, HPMC) was 12.7 days. The “Activity (%)” value (P. berghei; mice, 4 × 100 mg/kg oral, DMSO) was 99.79%, the “Cure (%)” value (P. berghei; mice, 4 × 100 mg/kg oral, DMSO) was 100% and the “Survival” value (P. berghei; mice, 4 × 100 mg/kg oral, DMSO, survivors sacrificed on Day 31) was 30.0 days. For the same molecule, the “Activity (%)” value (P. berghei; mice, 4 × 100 mg/kg oral, HPMC) was 99.79%, the “Cure (%)” value (P. berghei; mice, 4 × 100 mg/kg oral, HPMC) was 100% and the “Survival” value (P. berghei; mice, 4 × 100 mg/kg oral, HPMC, survivors sacrificed on Day 31) was 30.0 days. For the same molecule, the “blood from treated animals parasite free or not” value (P. berghei; mice, 4× 100 mg/kg p.o.) was “parasite free”, the “Visual Observation (parasites in blood)” value (P. berghei; mice, 4× 100 mg/kg p.o., DMSO) was “neg” and the “Parasitized RBC in one drop of blood (made by microscope)” value (P. berghei; mice, 4× 100 mg/kg p.o., DMSO) was 0. For the same molecule, the “Visual Observation (parasites in blood)” value (P. berghei; mice, 4× 100 mg/kg p.o., HPMC) was “neg”, the “Parasitized RBC in one drop of blood (made by microscope)” value (P. berghei; mice, 4× 100 mg/kg p.o., HPMC) was 0 and the outcome of treatment (P. berghei; mice, P. berghei strain ANKA, 4×100 mg/kg, cure = survival on Day 30 with no detectable parasites) was “cure”. For the same molecule, the “activity compared with Artesunate in the mouse model” value (P. berghei; murine P. berghei model (Vennerstrom et al.)) was “equivalent activity to Artesunate”.
